Consider 28 molecules from patent publication US12662469B2 (SIRONAX LTD, priority 2018, dated 2026).

Read-outs that look alike come from different tables or passages of the source. Some results are limits rather than exact numbers.

The target of one experiment is T1, Human RIP1 kinase (Homo sapiens, UniProt Q13546).
T1 sequence (Q13546 1-671): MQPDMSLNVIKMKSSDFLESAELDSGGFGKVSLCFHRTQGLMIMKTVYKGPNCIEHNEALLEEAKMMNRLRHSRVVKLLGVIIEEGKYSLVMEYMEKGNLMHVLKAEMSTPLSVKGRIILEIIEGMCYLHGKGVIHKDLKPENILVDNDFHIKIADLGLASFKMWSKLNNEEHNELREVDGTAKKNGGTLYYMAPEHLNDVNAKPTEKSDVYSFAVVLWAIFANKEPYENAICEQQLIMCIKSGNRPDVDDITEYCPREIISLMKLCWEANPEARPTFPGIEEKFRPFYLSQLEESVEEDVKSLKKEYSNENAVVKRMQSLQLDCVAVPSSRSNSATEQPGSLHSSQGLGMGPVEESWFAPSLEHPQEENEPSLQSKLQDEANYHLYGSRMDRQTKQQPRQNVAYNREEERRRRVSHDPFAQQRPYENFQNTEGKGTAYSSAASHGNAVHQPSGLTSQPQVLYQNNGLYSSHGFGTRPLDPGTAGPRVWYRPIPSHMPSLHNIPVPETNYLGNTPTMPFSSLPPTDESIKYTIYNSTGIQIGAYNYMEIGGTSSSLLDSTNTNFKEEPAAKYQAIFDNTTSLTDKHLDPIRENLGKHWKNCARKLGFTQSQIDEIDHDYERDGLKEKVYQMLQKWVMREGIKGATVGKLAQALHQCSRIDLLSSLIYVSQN
Kind of experiment: Human RIP1 kinase assay. Type of experiment: biochemical. Conditions: representative, exemplary data.

The test system of a further experiment is Cell Necrosis. Description: Cell necrosis assay / cell viability assay (necrosis inhibitor activity). The format is cell-based.
Setting [1] is: necrosis inhibitor activity, EC data for 14-191 extrapolated, read-out: EC50.
The mark [2] stands for this setting: representative, exemplary data, read-out: Cell viability assay, EC50.
[3] abbreviates: necrosis inhibitor activity, compounds outside 14-191, read-out: EC50.

As usually defined, the IC50 is the point on the concentration scale where inhibition reaches its midpoint. A higher IC50 goes with weaker potency in that assay. A word on the EC50: it is the concentration needed to bring the measured effect to its halfway point. Take `O=C(N1CC[C@@H](Oc2ccccc2)C1)N1N=CCC1c1ccccc1` (single isomer, unassigned) [Compound 26A]: the IC50 against Human RIP1 kinase was less than 100 nM. Also, the EC50 in the experiment on Cell Necrosis (setting [1]) and with Cell Necrosis (setting [2]) was 1 to 1000 nM each time. The molecule `O=C(N1CC[C@@H](Oc2ccccc2)C1)N1N=CCC1c1ccccc1` (single isomer, unassigned) [Compound 26B] registered an IC50 against Human RIP1 kinase of more than 1000 nM. The EC50 was 1000 to 10000 nM in the experiment on Cell Necrosis (setting [1]) and more than 1000 nM in the experiment on Cell Necrosis (setting [2]). Regarding `O=C(N1CCC1)N1N=CCC1c1ccccc1` (stereo not shown) [Compound 1, azetidin-1-yl(5-phenyl-4,5-dihydro-1H-pyrazol-1-yl)methanone], on Human RIP1 kinase, the IC50 is approximately 1000 nM. For the same molecule, the EC50 in the experiment on Cell Necrosis (setting [3]) fell in the range of 1000 to 10000 nM; in the experiment with Cell Necrosis (setting [2]), 1 to 10000 nM.

`O=C(NC1Cc2ccccc2C1)N1N=CCC1c1ccccc1` (stereo not shown) [Compound 14, N-(2,3-dihydro-H-inden-2-yl)-5-phenyl-4,5-dihydro-1H-pyrazole-1-carboxamide] had an IC50 against Human RIP1 kinase of 100 to 1000 nM. Also, the EC50 in the experiment with Cell Necrosis (setting [1]) and in the experiment on Cell Necrosis (setting [2]) was 1 to 1000 nM in each case. Take `O=C(N1CC(Cc2cccc(F)c2)C1)N1N=CCC1c1ccccc1` (stereo not shown) [Compound 41, (3-(3-fluorobenzyl)azetidin-1-yl)(5-phenyl-4,5-dihydro-1H-pyrazol-1-yl)methanone]: the IC50 against Human RIP1 kinase was less than 100 nM. Further, the EC50 with Cell Necrosis (setting [1]) is 1 to 1000 nM; with Cell Necrosis (setting [2]), 1 to 100 nM. The matching figures for `O=C(N1CC(Oc2ccc(F)cc2F)C1)N1N=CCC1c1cc(F)cc(F)c1` (stereo not shown) [Compound 76, (3-(2,4-difluorophenoxy)azetidin-1-yl)(5-(3,5-difluorophenyl)-4,5-dihydro-1H-pyrazol-1-yl)methanone]: less than 100 nM, 1 to 1000 nM and 1 to 100 nM. For the molecule `NC(=O)c1nccc(O[C@@H]2CCN(C(=O)N3N=CC[C@H]3c3cc(F)cc(F)c3)C2)n1` [Compound 364, 4-(((R)-1-((S)-5-(3,5-difluorophenyl)-4,5-dihydro-1H-pyrazole-1-carbonyl)pyrrolidin-3-yl)oxy)pyrimidine-2-carboxamide], in the experiment on Cell Necrosis (setting [3]), the EC50 fell in the range of 1 to 1000 nM. The same measure, in the same setting: as for `N#Cc1ccc(O[C@@H]2CCN(C(=O)N3N=CC[C@H]3c3cc(F)cc(F)c3)C2)c(Cl)n1` [Compound 365, 6-chloro-5-(((R)-1-((S)-5-(3,5-difluorophenyl)-4,5-dihydro-1H-pyrazole-1-carbonyl)pyrrolidin-3-yl)oxy)picolinonitrile], the figure is 1 to 1000 nM. The same measure, in the same setting: the figure for `CN(C(=O)OC(C)(C)C)c1nccc(O[C@@H]2CCN(C(=O)N3N=CC[C@H]3c3cc(F)cc(F)c3)C2)n1` [Compound 366, tert-butyl (4-(((R)1-((S)-5-(3,5-difluorophenyl)-4,5-dihydro-1H-pyrazole-1-carbonyl)pyrrolidin-3-yl)oxy)pyrimidin-2-yl)(methyl)carbamate] is 1 to 1000 nM; for `Nc1nccc(O[C@@H]2CCN(C(=O)N3N=CC[C@H]3c3cc(F)cc(F)c3)C2)n1` [Compound 367, ((R)-3-((2-aminopyrimidin-4-yl)oxy)pyrrolidin-1-yl)((S)-5-(3,5-difluorophenyl)-4,5-dihydro-1H-pyrazol-1-yl)methanone] it is 1 to 1000 nM; for `CC(=O)Nc1nccc(O[C@@H]2CCN(C(=O)N3N=CC[C@H]3c3cc(F)cc(F)c3)C2)n1` [Compound 368, N-(4-(((R)-1-((S)-5-(3,5-difluorophenyl)-4,5-dihydro-H-pyrazole-1-carbonyl)pyrrolidin-3-yl)oxy)pyrimidin-2-yl)acetamide] it is 1 to 1000 nM. The same measure, in the same setting: as for `O=C(Nc1nccc(O[C@@H]2CCN(C(=O)N3N=CC[C@H]3c3cc(F)cc(F)c3)C2)n1)C1CC1` [Compound 369, N-(4-(((R)-1-((S)-5-(3,5-difluorophenyl)-4,5-dihydro-1H-pyrazole-1-carbonyl)pyrrolidin-3-yl)oxy)pyrimidin-2-yl)cyclopropanecarboxamide], the figure is 1 to 1000 nM; as for `CNc1nccc(O[C@@H]2CCN(C(=O)N3N=CC[C@H]3c3cc(F)cc(F)c3)C2)n1` [Compound 370], 1 to 1000 nM. As to `O=C(N1CC(=Cc2cc(NCCN3CCOCC3)ccc2F)C1)N1N=CC[C@H]1c1cc(F)cc(F)c1` [Compound 371, (S)-(5-(3,5-difluorophenyl)-4,5-dihydro-1H-pyrazol-1-yl)(3-(2-fluoro-5-((2-morpholinoethyl)amino)benzylidene)azetidin-1-yl)methanone], the concentration giving a half-maximal response (EC50) with Cell Necrosis (setting [3]) lay within 1 to 1000 nM. The same measure, in the same setting: the figure for `O=C(N1CC(=Cc2cc3[nH]c(=O)oc3cc2F)C1)N1N=CC[C@H]1c1cc(F)cc(F)c1` [Compound 372, (S)-5-((1-(5-(3,5-difluorophenyl)-4,5-dihydro-1H-pyrazole-1-carbonyl)azetidin-3-yildene)methyl)-6-fluorobenzo[d]oxazol-2(3H)-one] is 1 to 1000 nM.

In the case of `N#Cc1cccc([C@@H]2CC=NN2C(=O)N2CC(=Cc3cc4c(cc3F)CC(=O)N4)C2)c1` [Compound 373, (S)-3-(1-(3-((5-fluoro-2-oxoindolin-6-yl)methylene)azetidine-1-carbonyl)-4,5-dihydro-1H-pyrazol-5-yl)benzonitrile], the EC50 in the experiment on Cell Necrosis (setting [3]) lay within 1 to 1000 nM. Still for that read-out and setting: the figure for `O=C(N1CC(CN2Cc3cn[nH]c3C2)C1)N1N=CC[C@H]1c1cc(F)cc(F)c1` [Compound 375, (S)-(5-(3,5-difluorophenyl)-4,5-dihydro-1H-pyrazol-1-yl)(3-((4,6-dihydropyrrolo[3,4-c]pyrazol-5(1H)-yl)methyl)azetidin-1-yl)methanone] is 1 to 1000 nM.

With `O=C(N1CC(Oc2cc3[nH]nc(F)c3cc2F)C1)N1N=CC[C@H]1c1cc(F)cc(F)c1` [Compound 376, (S)-(3-((3,5-difluoro-1H-indazol-6-yl)oxy)azetidin-1-yl)(5-(3,5-difluorophenyl)-4,5-dihydro-1H-pyrazol-1-yl)methanone], the EC50 with Cell Necrosis (setting [3]) was 1 to 1000 nM.

As to `N#Cc1cc(F)cc([C@@H]2CC=NN2C(=O)N2CC(Oc3cc4[nH]nc(F)c4cc3F)C2)c1` [Compound 377, (S)-3-(1-(3-((3,5-difluoro-1H-indazol-6-yl)oxy)azetidine-1-carbonyl)-4,5-dihydro-1H-pyrazol-5-yl)-5-fluorobenzonitrile], in the experiment with Cell Necrosis (setting [3]), the EC50 was 1 to 1000 nM. The same measure, in the same setting: as for `O=C(N1CC(Oc2cc3[nH]nc(F)c3cc2F)C1)N1N=CCC1c1cncc(F)c1` (stereo not shown) [Compound 378, (3-((3,5-difluoro-1H-indazol-6-yl)oxy)azetidin-1-yl)(5-(5-fluoropyridin-3-yl)-4,5-dihydro-1H-pyrazol-1-yl)methanone], the figure is 1 to 1000 nM; as for `O=C(N1CC(Oc2cc3[nH]nc(F)c3cc2F)C1)N1N=CCC1c1ccccc1` (stereo not shown) [Compound 379, (3-((3,5-difluoro-1H-indazol-6-yl)oxy)azetidin-1-yl)(5-phenyl-4,5-dihydro-1H-pyrazol-1-yl)methanone], 1 to 1000 nM.

In the case of `N#Cc1cccc(C2CC=NN2C(=O)N2CC(Oc3cc4[nH]nc(F)c4cc3F)C2)c1` (stereo not shown) [Compound 380, 3-(1-(3-((3,5-difluoro-1H-indazol-6-yl)oxy)azetidine-1-carbonyl)-4,5-dihydro-1H-pyrazol-5-yl)benzonitrile], in the experiment on Cell Necrosis (setting [3]), the half-maximal effective concentration (EC50) lay in the range of 1 to 1000 nM. Turning to `N#Cc1cncc(C2CC=NN2C(=O)N2CC(Oc3cc4[nH]nc(F)c4cc3F)C2)c1` (stereo not shown) [Compound 381, 5-(1-(3-((3,5-difluoro-1H-indazol-6-yl)oxy)azetidine-1-carbonyl)-4,5-dihydro-1H-pyrazol-5-yl)nicotinonitrile], in the experiment on Cell Necrosis (setting [3]), the EC50 lay within 1 to 1000 nM. On the same count and under the same terms, as for `NCC#Cc1ccnc(N2CCN(C(=O)N3N=CCC3c3cc(F)cc(F)c3)CC2)n1` (stereo not shown) [Compound 382, (4-(4-(3-aminoprop-1-yn-1-yl)pyrimidin-2-yl)piperazin-1-yl)(5-(3,5-difluorophenyl)-4,5-dihydro-1H-pyrazol-1-yl)methanone frifluoroacetate], the figure is 1 to 1000 nM; as for `N#Cc1cnc2ccc(N3CCN(C(=O)N4N=CC[C@H]4c4cc(F)cc(F)c4)CC3)nn12` [Compound 383, (S)-6-(4-(5-(3,5-difluorophenyl)-4,5-dihydro-1H-pyrazole-1-carbonyl)piperazin-1-yl)imidazo[1,2-b]pyridazine-3-carbonitrile], 1 to 1000 nM; as for `Cc1nnc(N2CCN(C(=O)N3N=CC[C@H]3c3cc(F)cc(F)c3)CC2)s1` [Compound 384, (S)-(5-(3,5-difluorophenyl)-4,5-dihydro-1H-pyrazol-1-yl)(4-(5-methyl-1,3,4-thiadiazol-2-yl)piperazin-1-yl)methanone], 1 to 1000 nM.

With `N#Cc1cnc(N2CCN(C(=O)N3N=CC[C@H]3c3cc(F)cc(F)c3)CC2)nc1` [Compound 385, (S)-2-(4-(5-(3,5-difluorophenyl)-4,5-dihydro-1H-pyrazole-1-carbonyl)piperazin-1-yl)pyrimidine-5-carbonitrile], the 50% effective concentration (EC50) in the experiment on Cell Necrosis (setting [3]) lay in the range of 1 to 1000 nM.

Turning to `O=C1Cc2cnc(N3CCN(C(=O)N4N=CC[C@H]4c4cc(F)cc(F)c4)CC3)nc2N1` [Compound 386, (S)-2-(4-(5-(3,5-difluorophenyl)-4,5-dihydro-1H-pyrazole-1-carbonyl)piperazin-1-yl)-5,7-dihydro-6H-pyrrolo[2,3-d]pyrimidin-6-one], the EC50 with Cell Necrosis (setting [3]) fell in the range of 1 to 1000 nM.
